Reference: ChEMBL document CHEMBL1201862, “PubChem BioAssay data set” (2004)
Calls of active or inactive are those of the source.

Tests used:
HEK293 [1] = experiment: NOD2 signaling inhibitors in MDP-stimulated cells, cell-based, uHTS, luminescence (AID 2001); assay type: functional; settings: Homo sapiens
[2] = target: T1, RNA-binding protein pos-1 (Caenorhabditis elegans, UniProt G5EF15); experiment: inhibitors of POS-1/mex-3 RNA binding, dose response, biochemical, fluorescence polarization (AID 1964);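 also: purified POS-1 fused to maltose binding protein made in E. coli; potency of compounds blocking POS-1 binding to fluorescent RNA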
T1 sequence (G5EF15 whole entry): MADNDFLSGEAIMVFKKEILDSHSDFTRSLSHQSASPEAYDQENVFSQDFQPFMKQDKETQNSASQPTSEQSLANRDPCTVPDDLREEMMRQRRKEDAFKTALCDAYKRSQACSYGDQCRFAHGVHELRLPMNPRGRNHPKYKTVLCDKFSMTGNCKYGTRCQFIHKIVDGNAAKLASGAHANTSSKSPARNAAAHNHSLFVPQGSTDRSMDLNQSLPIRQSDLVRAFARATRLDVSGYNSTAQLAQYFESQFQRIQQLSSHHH

HEK293 [3] = experiment: NOD1 signaling inhibitors, primary screen, cell-based, luminescence, uHTS (AID 1578); assay type: functional; settings: Homo sapiens
HEK293 [4] = experiment: cells; assay type: functional, cell-based; settings: Homo sapiens
[5] = target: T2, Zinc finger protein mex-5 (Caenorhabditis elegans, UniProt Q9XUB2); experiment: MEX-5/TCR-2 RNA interaction inhibitors, dose response, biochemical, C. elegans, fluorescence polarization (AID 1960)
T2 sequence (Q9XUB2 whole entry): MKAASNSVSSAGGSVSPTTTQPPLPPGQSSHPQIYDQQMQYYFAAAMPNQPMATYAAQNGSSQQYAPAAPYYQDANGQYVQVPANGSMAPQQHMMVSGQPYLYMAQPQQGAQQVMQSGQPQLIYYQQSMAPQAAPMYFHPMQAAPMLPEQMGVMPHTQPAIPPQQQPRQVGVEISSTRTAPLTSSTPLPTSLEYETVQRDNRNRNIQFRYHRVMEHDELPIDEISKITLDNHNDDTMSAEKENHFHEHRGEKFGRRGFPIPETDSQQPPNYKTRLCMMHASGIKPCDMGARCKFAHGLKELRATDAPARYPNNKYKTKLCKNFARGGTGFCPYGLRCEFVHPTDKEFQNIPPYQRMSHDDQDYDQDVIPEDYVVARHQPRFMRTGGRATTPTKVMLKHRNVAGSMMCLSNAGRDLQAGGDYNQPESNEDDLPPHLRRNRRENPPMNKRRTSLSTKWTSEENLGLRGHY

HEK293 [6] = experiment: cells; assay type: functional, cell-based; settings: Homo sapiens; remark: listed apart in the source
[7] = A549 cell cytotoxicity, dose response, cytotoxicity control, plate reader, cherry-pick, antagonist series (AID 743412); assay type: functional, cell-based
[8] = HepG2 cell cytotoxicity, dose response, cytotoxicity control, plate reader, cherry-pick, antagonist series (AID 743416); assay type: functional, cell-based
[9] = MC4R antagonists, dose response, counter-screen for LGR2 antagonist project, cell-based, plate reader, cherry pick (AID 743444); assay type: functional;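 also: transfected HEK 293 cells stimulated with alpha-MSH peptide; potency of inhibitors of the alpha-MSH evoked signal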
[10] = LGR2 antagonists, dose response, cell-based, HEK293, CRE-luciferase reporter, cherry pick, set 2 (AID 743343); assay type: functional;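 also: transfected cells were stimulated with diluted bursicon conditioned medium after compound addition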
[11] = target: T3, Short transient receptor potential channel 4 (Mus musculus, UniProt Q9QUQ5); experiment: mouse TRPC4 channel activators, dose response, cell-based, HEK293 TRPC4/mu-opioid, Fluo-4 calcium (AID 434937); assay type: functional
T3 sequence (Q9QUQ5 whole entry): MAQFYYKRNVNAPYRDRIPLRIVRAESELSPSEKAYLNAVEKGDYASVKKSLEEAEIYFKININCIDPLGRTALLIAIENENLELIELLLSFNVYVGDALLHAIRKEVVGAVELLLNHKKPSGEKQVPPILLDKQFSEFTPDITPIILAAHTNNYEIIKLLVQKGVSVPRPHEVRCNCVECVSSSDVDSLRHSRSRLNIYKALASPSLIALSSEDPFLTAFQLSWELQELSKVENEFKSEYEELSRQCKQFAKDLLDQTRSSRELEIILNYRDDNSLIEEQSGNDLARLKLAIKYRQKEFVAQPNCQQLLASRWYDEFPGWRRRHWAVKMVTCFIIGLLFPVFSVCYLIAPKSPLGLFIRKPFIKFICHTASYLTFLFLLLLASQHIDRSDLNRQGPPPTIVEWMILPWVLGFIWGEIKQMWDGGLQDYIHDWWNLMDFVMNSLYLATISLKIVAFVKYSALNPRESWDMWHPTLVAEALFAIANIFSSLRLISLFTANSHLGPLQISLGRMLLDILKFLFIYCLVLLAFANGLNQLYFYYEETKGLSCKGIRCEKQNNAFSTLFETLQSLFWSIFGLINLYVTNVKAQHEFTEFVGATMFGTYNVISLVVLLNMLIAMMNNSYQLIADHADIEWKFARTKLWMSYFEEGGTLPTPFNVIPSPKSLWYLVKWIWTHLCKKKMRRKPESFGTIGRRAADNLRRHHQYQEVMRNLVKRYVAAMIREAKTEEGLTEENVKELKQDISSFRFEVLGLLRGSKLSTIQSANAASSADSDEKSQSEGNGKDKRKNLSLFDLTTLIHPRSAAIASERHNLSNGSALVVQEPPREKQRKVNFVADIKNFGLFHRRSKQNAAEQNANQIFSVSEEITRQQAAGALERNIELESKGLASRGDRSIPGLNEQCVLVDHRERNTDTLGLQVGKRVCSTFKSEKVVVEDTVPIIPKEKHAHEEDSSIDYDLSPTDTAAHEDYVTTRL

cells [12] = assay type: functional, cell-based
[13] = inhibitors of Vif binding to APOBEC3G peptide, primary screen, biochemical, TR-FRET, GST-Vif 1-94, biotin-A3G peptide, dose response retest (AID 1117319); assay type: functional;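 also: TR-FRET signal of purified GST-Vif binding a biotinylated A3G peptide; inhibitors lower the FRET signal by blocking Vif and A3G binding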
cells [14] = assay type: functional, cell-based; remark: listed apart in the source
[15] = Luminescence Cell-Based Dose Response HTS to Identify Activators of Luciferase Translation or Activity in H4 […] Cells. [Related pubchem assays: 1829 (Project Summary), 1814 (Primary HTS)]; assay type: functional
[16] = target: T4, Corticotropin-releasing factor receptor 2/Corticotropin-releasing factor-binding protein (Homo sapiens, UniProt P24387+Q13324); experiment: Dose Response confirmation of uHTS hits for small molecule antagonists of the CRF-binding protein and CRF-R2 receptor complex.; assay type: functional; settings: read-out: IC50_Mean
T4 sequence (Q13324 whole entry): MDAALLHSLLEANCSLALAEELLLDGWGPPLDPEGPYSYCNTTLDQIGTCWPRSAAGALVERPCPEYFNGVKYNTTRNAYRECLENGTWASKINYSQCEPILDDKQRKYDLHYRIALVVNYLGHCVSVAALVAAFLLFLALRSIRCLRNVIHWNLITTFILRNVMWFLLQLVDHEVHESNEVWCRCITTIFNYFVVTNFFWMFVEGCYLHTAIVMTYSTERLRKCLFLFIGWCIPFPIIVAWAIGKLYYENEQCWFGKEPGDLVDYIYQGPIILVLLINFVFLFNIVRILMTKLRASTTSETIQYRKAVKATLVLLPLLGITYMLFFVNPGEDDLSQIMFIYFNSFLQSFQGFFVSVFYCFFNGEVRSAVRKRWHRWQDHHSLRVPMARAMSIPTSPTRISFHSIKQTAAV
T4 sequence (P24387 whole entry): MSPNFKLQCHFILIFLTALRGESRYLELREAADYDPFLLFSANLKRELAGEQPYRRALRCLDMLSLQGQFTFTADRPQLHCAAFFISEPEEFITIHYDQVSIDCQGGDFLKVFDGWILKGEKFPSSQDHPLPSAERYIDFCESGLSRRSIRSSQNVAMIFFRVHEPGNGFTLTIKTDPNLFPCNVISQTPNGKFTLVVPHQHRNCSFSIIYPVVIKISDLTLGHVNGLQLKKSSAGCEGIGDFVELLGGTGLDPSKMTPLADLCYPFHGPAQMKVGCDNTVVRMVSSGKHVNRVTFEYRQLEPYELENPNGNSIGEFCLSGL

[17] = target: T4, Corticotropin-releasing factor receptor 2/Corticotropin-releasing factor-binding protein; experiment: activators of CRF receptor 2 with binding protein – uHTS hits, confirmation (AID 602473); assay type: functional; settings: read-out: EC50_Mean
H4 = experiment: Luminescence Cell-Based Dose Response HTS to Identify Activators of 5'UTR Stem-Loop Driven Prion Protein mRNA Translation in H4 Neuroglioblastoma Cells. [Related pubchem assays: 1829 (Project Summary), 1814 (Primary HTS)]; assay type: functional; settings: Homo sapiens
[18] = target: FAD-linked sulfhydryl oxidase ALR (Homo sapiens, UniProt P55789); experiment: inhibitors of human ALR sulfhydryl oxidase, dose response, biochemical, H2O2 detection, luminescence, cherry-pick (AID 493248)
Sequence of FAD-linked sulfhydryl oxidase ALR (P55789 whole entry): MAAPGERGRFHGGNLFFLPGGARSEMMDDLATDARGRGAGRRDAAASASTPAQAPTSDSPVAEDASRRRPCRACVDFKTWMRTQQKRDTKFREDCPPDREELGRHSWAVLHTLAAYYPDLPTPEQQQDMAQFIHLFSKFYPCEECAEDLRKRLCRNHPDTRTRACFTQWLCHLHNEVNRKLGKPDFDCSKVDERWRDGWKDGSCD

[19] = Luminescence Cell-Based Dose Confirmation HTS to Identify Activators of 5'UTR Stem-Loop Driven Alpha-Synuclein mRNA Translation in H4 Neuroglioblastoma Cells. [Related pubchem assays: 1829 (Project Summary), 1814 (Primary HTS)]; assay type: functional
Genome polyprotein = Genome polyprotein (dengue virus type 2, UniProt P29990); experiment: Dengue-2 NS5 methyltransferase inhibitors, primary screen, biochemical, confirmation dose response (AID 588689); assay type: functional
Sequence of Genome polyprotein (P29990 2492-3391 limits assumed): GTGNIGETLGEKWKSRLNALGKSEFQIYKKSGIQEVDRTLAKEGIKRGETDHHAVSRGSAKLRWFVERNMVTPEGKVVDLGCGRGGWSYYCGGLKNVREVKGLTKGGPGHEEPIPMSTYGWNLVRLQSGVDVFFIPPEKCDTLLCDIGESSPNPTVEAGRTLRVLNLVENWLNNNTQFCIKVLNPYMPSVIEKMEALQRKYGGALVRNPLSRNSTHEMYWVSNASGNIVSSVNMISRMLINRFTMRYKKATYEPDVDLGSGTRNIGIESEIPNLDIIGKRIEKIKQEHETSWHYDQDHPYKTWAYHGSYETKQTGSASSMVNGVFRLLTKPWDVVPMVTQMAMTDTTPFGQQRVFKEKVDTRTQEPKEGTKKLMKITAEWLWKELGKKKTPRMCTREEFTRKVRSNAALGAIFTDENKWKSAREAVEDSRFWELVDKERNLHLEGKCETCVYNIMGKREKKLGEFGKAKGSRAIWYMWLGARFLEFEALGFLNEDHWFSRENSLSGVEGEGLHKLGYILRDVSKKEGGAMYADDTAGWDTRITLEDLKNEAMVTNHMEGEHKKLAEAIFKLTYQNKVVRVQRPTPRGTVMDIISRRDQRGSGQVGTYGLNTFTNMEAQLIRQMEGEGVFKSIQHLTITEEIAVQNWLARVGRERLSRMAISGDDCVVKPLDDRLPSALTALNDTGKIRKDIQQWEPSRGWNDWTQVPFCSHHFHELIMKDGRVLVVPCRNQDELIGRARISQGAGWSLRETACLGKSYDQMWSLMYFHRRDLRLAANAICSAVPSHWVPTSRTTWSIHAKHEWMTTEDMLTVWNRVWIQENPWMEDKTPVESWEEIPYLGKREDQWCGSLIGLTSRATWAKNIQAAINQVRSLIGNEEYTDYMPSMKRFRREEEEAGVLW

Nonstructural protein 1 = Nonstructural protein 1 (Influenza A virus, UniProt Q194T2); assay type: functional, Influenza A virus (A/California/07/2009(H1N1))
Sequence of Nonstructural protein 1 (Q194T2 whole entry): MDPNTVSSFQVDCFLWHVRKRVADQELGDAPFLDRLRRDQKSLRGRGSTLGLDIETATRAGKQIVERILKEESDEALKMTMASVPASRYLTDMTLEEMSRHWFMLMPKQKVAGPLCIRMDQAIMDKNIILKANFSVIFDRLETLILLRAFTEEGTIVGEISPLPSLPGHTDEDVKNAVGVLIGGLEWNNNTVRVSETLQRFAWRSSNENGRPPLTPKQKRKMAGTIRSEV

[20] = target: Heat shock protein HSP 90-alpha (Homo sapiens, UniProt P07900); assay type: functional, organism-based
[21] = CRF-BP/CRF-R2 complex antagonists, dose response, cell-based, uHTS hits, 384-well (AID 651639); assay type: functional, Homo sapiens; settings: read-out: IC50_Mean

## Cc1cccc2cc3c(N)c(C(=O)Nc4ccc(N5CCOCC5)cc4)sc3nc12
HEK293 [1]
  IC50: 7.54 µM (inactive)
[2]
  EC50: > 300 µM (not active)
HEK293 [3]
  EC50: 18.7 µM (active)
HEK293 [4]
  IC50: > 20 µM (inactive)
[5]
  EC50: > 300 µM (not active)
HEK293 [6]
  IC50: 5.5 µM (active)

## Cc1cc(C)n2c(Nc3ccc4c(c3)OCCO4)c(-c3cc4ccccc4o3)nc2n1
[7]
  AC50: 29.8 µM (active)
[8]
  AC50: > 52 µM (inactive)
[9]
  AC50: 22.8 µM (active)
[10]
  AC50: 12.7 µM (active)

## COc1ccc(CNCCc2c[nH]c3ccccc23)cc1OC
[11]
  EC50: 5.96 µM (active)

## Cc1nc2nc(-c3ccco3)nn2c(C)c1Cl
Cells [12]
  EC50: > 350 µM (not active)
[13]
  IC50: > 100 µM (active)
Cells [14]
  EC50: > 350 µM (not active)

## CCCC(=O)N1CCc2cc(-c3nc(N)sc3C)ccc21
[15]
  EC50: 31.9 µM (active)
[16]
  IC50: > 47.1 µM (inactive)
[11]
  EC50: 0.376 µM (active)
[17]
  EC50: > 53 µM (inactive)
H4
  EC50: 44.6 µM (active)
[18]
  AC50: 0.149 µM (active)
[19]
  EC50: 43.5 µM (active)

## Cc1ccccc1N=C(S)NCCc1ccccn1
[11]
  EC50: 5.31 µM (active)

## COc1cc(NC(=O)CSc2ncnc3sc4c(c23)CCC(C)C4)c(C(=O)O)cc1OC (stereo not drawn)
Genome polyprotein
  IC50: 86 µM (active)

## CCCn1nc(Oc2nc(SC)nc(N(C)C)n2)ccc1=O
[13]
  IC50: > 100 µM (active)

## COc1ccc(/C=c2\sc3nc(=O)c(C)nn3c2=O)c(OC)c1
Genome polyprotein
  IC50: 22.1 µM (active)
[2]
  EC50: > 300 µM (not active)
[5]
  EC50: 88 µM (active)

## CC(=NNC(=S)N(Cc1ccccn1)Cc1ccccn1)c1cnccn1
Nonstructural protein 1
  IC50: 1.18 µM (active)
[20]
  AC50: 3.3 µM (active)

## Cc1ccc(-n2nnnc2SCc2nnc(-c3ccccc3Br)o2)cc1
[16]
  IC50: 11 µM (active)
[17]
  EC50: > 53 µM (inactive)
[21]
  IC50: 3.85 µM (active)

## C#CCOc1ccc(/C=C2/C(=O)N(c3ccc(S(N)(=O)=O)cc3)N=C2C)cc1OC
Genome polyprotein
  IC50: > 100 µM (active)
